US11613527B2, “Enzyme inhibitors” (KalVista Pharmaceuticals Limited, priority 2019, dated 2023)

Legend:
Format in all cases: biochemical
[1] = target: Human KLK1 (Homo sapiens (Human), UniProt P06870); assay: Determination of the IC50 for KLK1 (fluorogenic substrate H-DVal-Leu-Arg-AFC)
Description: Selected compounds were further screened for inhibitory activity against the related enzyme KLK1. The ability of the compounds of formula (I) to inhibit KLK1 may be determined using the following biological assay:
Determination of the IC50 for KLK1
(§1) KLK1 inhibitory activity in vitro was determined using standard published methods (see e.g. Johansen et al., Int. J. Tiss. Reac. 1986, 8, 185; Shori et al., Biochem. Pharmacol., 1992, 43, 1209; Sturzebecher et al., Biol. Chem. Hoppe-Seyler, 1992, 373, 1025). Human KLK1 (Callbiochem) was incubated at 25° C. with the fluorogenic substrate H-DVal-Leu-Arg-AFC and various concentrations of the test compound. Residual enzyme activity (initial rate of reaction) was determined by measuring the change in optical absorbance at 410 nm and the IC50 value for the test compound was determined.

[2] = target: Human plasma kallikrein (Homo sapiens (Human), UniProt P03952); assay: Determination of the IC50 for plasma kallikrein (fluorogenic substrate H-DPro-Phe-Arg-AFC); conditions: class symbols A-D, read-out: IC50 (human PKal)
Description: The ability of the compounds of formula (I) to inhibit plasma kallikrein may be determined using the following biological assay:
Determination of the IC50 for Plasma Kallikrein
as §1, with “Plasma kallikrein” for “KLK1”, “plasma kallikrein (Protogen)” for “KLK1 (Callbiochem)”, “H-DPro-Phe-Arg-AFC” for “H-DVal-Leu-Arg-AFC”

[3] = target: Human FXIa (Homo sapiens (Human), UniProt P03951); assay: Determination of the % inhibition for FXIa (fluorogenic substrate Z-Gly-Pro-Arg-AFC; 40 μM or IC50)
Description: Selected compounds were further screened for inhibitory activity against the related enzyme FXIa. The ability of the compounds of formula (I) to inhibit FXIa may be determined using the following biological assay:
Determination of the % Inhibition for FXIa
FXIa inhibitory activity in vitro was determined using standard published methods (see e.g. Johansen et al., Int. J. Tiss. Reac. 1986, 8, 185; Shori et al., Biochem. Pharmacol., 1992, 43, 1209; Sturzebecher et al., Biol. Chem. Hoppe-Seyler, 1992, 373, 1025). Human FXIa (Enzyme Research Laboratories) was incubated at 25° C. with the fluorogenic substrate Z-Gly-Pro-Arg-AFC and 40 μM of the test compound (or alternatively at various concentrations of the test compound in order to determine IC50). Residual enzyme activity (initial rate of reaction) was determined by measuring the change in optical absorbance at 410 nm and the IC50 value for the test compound was determined.

Sequence of Human FXIa (P03951 388-625): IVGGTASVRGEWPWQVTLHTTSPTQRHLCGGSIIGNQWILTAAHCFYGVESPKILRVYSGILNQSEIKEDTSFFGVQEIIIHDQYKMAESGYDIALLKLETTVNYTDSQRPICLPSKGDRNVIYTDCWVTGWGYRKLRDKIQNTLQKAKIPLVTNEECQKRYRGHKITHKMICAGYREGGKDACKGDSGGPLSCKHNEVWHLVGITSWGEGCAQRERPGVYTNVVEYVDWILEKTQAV
Sequence of Human FXIa (P03951 19-387 partner): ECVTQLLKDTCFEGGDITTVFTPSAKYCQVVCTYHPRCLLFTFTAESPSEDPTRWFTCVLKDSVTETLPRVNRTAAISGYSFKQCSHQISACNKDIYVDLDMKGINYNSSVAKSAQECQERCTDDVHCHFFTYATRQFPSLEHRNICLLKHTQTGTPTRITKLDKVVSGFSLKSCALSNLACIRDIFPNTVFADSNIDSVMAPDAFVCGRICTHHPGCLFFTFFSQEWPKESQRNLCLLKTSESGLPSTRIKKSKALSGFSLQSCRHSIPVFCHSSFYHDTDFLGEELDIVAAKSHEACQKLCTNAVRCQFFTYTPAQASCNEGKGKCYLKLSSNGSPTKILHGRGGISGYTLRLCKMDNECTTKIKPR
Sequence of Human plasma kallikrein (P03952 391-638): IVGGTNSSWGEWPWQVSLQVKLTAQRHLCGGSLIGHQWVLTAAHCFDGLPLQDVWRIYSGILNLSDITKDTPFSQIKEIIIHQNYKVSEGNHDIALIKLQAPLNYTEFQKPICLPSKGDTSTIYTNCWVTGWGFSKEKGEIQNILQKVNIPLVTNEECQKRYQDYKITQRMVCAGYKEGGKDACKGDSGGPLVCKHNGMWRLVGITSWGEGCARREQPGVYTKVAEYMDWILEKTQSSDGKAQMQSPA
Sequence of Human plasma kallikrein (P03952 20-390 partner): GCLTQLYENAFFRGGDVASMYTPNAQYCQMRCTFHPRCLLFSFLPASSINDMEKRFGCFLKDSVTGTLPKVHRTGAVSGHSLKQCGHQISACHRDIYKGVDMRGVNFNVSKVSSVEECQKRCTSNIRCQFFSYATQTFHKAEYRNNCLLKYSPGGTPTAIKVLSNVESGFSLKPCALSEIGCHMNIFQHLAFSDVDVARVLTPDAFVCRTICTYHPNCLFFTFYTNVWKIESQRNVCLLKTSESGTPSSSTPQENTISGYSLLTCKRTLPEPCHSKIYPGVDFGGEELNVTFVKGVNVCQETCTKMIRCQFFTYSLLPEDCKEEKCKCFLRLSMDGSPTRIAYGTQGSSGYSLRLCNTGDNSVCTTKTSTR
Sequence of Human KLK1 (P06870 25-262): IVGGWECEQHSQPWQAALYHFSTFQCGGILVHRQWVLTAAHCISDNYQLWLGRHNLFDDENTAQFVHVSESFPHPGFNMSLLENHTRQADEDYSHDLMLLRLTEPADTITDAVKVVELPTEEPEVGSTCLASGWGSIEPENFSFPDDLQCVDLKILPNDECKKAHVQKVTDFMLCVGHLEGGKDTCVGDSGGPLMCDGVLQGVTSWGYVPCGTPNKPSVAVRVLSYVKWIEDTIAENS

IC50 [1] | IC50 [2] | IC50 [3] | SMILES
> 40 µM | < 0.01 µM | > 40 µM | COCc1nn(Cc2ccc3c(c2F)CN(C)CC3)cc1C(=O)NCc1c(-n2cc(C)nn2)ccc(OC)c1F [Example 107, 1-[(8-fluoro-2-methyl-3,4-dihydro-1H-isoquinolin-7-yl)methyl]-N-{[2-fluoro-3-methoxy-6-(4-methyl-1,2,3-triazol-1-yl)phenyl]methyl}-3-(methoxymethyl)pyrazole-4-carboxamide]
> 40 µM | 0.03 to 0.1 µM | > 40 µM | COCc1nn(Cc2ccc3c(c2)C2CCC3N2C(C)C)cc1C(=O)NCc1c(-n2cc(C)nn2)ccc(OC)c1F (stereo not drawn) [Example 123, N-{[2-fluoro-3-methoxy-6-(4-methyl-1,2,3-triazol-1-yl)phenyl]methyl}-1-({11-isopropyl-11-azatricyclo[6.2.1.0^{2,7}]undeca-2(7),3,5-trien-4-yl}methyl)-3-(methoxymethyl)pyrazole-4-carboxamide]
> 40 µM | 0.03 to 0.1 µM | > 40 µM | COCc1nn(Cc2ccc3c(c2Cl)CCN(C)C3)cc1C(=O)NCc1c(-n2cc(C)nn2)ccc(OC)c1F [Example 104, 1-[(5-chloro-2-methyl-3,4-dihydro-1H-isoquinolin-6-yl)methyl]-N-{[2-fluoro-3-methoxy-6-(4-methyl-1,2,3-triazol-1-yl)phenyl]methyl}-3-(methoxymethyl)pyrazole-4-carboxamide]
> 40 µM | < 0.01 µM | > 40 µM | COCc1nn(Cc2ccc3c(c2)CN(C)CC3)cc1C(=O)NCc1c(-n2ncnc2C)ccc(OC)c1F [Example 12, N-{[2-fluoro-3-methoxy-6-(5-methyl-1,2,4-triazol-1-yl)phenyl]methyl}-3-(methoxymethyl)-1-[(2-methyl-3,4-dihydro-1H-isoquinolin-7-yl)methyl]pyrazole-4-carboxamide]
> 40 µM | < 0.01 µM | > 40 µM | COCc1nn(Cc2ccc3c(c2)CCN(C)CC3)cc1C(=O)NCc1c(-n2cc(C)nn2)ccc(OC)c1F [Example 121, N-{[2-fluoro-3-methoxy-6-(4-methyl-1,2,3-triazol-1-yl)phenyl]methyl}-3-(methoxymethyl)-1-[(3-methyl-1,2,4,5-tetrahydro-3-benzazepin-7-yl)methyl]pyrazole-4-carboxamide]
> 40 µM | 0.03 to 0.1 µM | 11.3 µM | COCc1nn(Cc2ccc3c(c2)C(=O)N(C)CC3)cc1C(=O)NCc1c(-n2cc(C)nn2)ccc(OC)c1F [Example 73, N-{[2-Fluoro-3-methoxy-6-(4-methyl-1,2,3-triazol-1-yl)phenyl]methyl}-3-(methoxymethyl)-1-[(2-methyl-1-oxo-3,4-dihydroisoquinolin-7-yl)methyl]pyrazole-4-carboxamide]
> 40 µM | < 0.01 µM | > 40 µM | COCc1nn(Cc2ccc3c(c2)CN(C2CCC2)CC3)cc1C(=O)NCc1c(-n2cc(C)nn2)ccc(OC)c1F [Example 18, 1-((2-cyclobutyl-1,2,3,4-tetrahydroisoquinolin-7-yl)methyl)-N-(2-fluoro-3-methoxy-6-(4-methyl-1H-1,2,3-triazol-1-yl)benzyl)-3-(methoxymethyl)-1H-pyrazole-4-carboxamide]
> 40 µM | < 0.01 µM | 16.3 µM | CCN1Cc2ccc(Cn3cc(C(=O)NCc4c(-n5cc(C)nn5)ccc(OC)c4F)c(COC)n3)cc2C1 [Example 56, 1-[(2-ethyl-1,3-dihydroisoindol-5-yl)methyl]-N-{[2-fluoro-3-methoxy-6-(4-methyl-1,2,3-triazol-1-yl)phenyl]methyl}-3-(methoxymethyl)pyrazole-4-carboxamide]
> 40 µM | < 0.01 µM | > 40 µM | COCc1nn(Cc2ccc3c(c2)CN(C2CC2)CC3)cc1C(=O)NCc1c(-n2cnc(C(F)F)n2)ccc(OC)c1F [Example 19, 1-[(2-cyclopropyl-3,4-dihydro-1H-isoquinolin-7-yl)methyl]-N-({6-[3-(difluoromethyl)-1,2,4-triazol-1-yl]-2-fluoro-3-methoxyphenyl}methyl)-3-(methoxymethyl)pyrazole-4-carboxamide]
> 40 µM | 0.03 to 0.1 µM | > 40 µM | COCc1nn(Cc2ccc3c(c2)CCN(C2CC2)C3)cc1C(=O)NCc1c(-n2cnc(C(F)(F)F)n2)ccc(OC)c1F [Example 48, 1-[(2-cyclopropyl-3,4-dihydro-1H-isoquinolin-6-yl)methyl]-N-({2-fluoro-3-methoxy-6-[3-(trifluoromethyl)-1,2,4-triazol-1-yl]phenyl}methyl)-3-(methoxymethyl)pyrazole-4-carboxamide]
> 40 µM | < 0.01 µM | > 40 µM | COCc1nn(Cc2ccc3c(c2)CN(C)CC3)cc1C(=O)NCc1c(-n2cncn2)ccc(OC)c1F [Example 7, N-{[2-fluoro-3-methoxy-6-(1,2,4-triazol-1-yl)phenyl]methyl}-3-(methoxymethyl)-1-[(2-methyl-3,4-dihydro-1H-isoquinolin-7-yl)methyl]pyrazole-4-carboxamide]
> 40 µM | 0.01 to 0.03 µM | > 40 µM | COCc1nn(Cc2ccc3c(c2)CCOC3)cc1C(=O)NCc1c(-n2cc(C)nn2)ccc(OC)c1F [Example 68, 1-(3,4-dihydro-1H-2-benzopyran-6-ylmethyl)-N-{[2-fluoro-3-methoxy-6-(4-methyl-1,2,3-triazol-1-yl)phenyl]methyl}-3-(methoxymethyl)pyrazole-4-carboxamide]
> 40 µM | < 0.01 µM | 19.6 µM | COc1ccc(-n2cnc(C(F)(F)F)n2)c(CNC(=O)c2cnn(Cc3ccc4c(c3)CN(C(C)C)CC4)c2)c1F [Example 32, N-({2-fluoro-3-methoxy-6-[3-(trifluoromethyl)-1,2,4-triazol-1-yl]phenyl}methyl)-1-[(2-isopropyl-3,4-dihydro-1H-isoquinolin-7-yl)methyl]pyrazole-4-carboxamide]
> 40 µM | 0.01 to 0.03 µM | > 40 µM | COCc1nn(Cc2ccc3c(c2)CN(C)CC3)cc1C(=O)NCc1c(-n2ccc(C(F)(F)F)n2)ccc(OC)c1F [Example 8, N-({2-fluoro-3-methoxy-6-[3-(trifluoromethyl)pyrazol-1-yl]phenyl}methyl)-3-(methoxymethyl)-1-[(2-methyl-3,4-dihydro-1H-isoquinolin-7-yl)methyl]pyrazole-4-carboxamide]
> 40 µM | < 0.01 µM | 34.6 µM | COc1ccc(-n2cnc(C(F)(F)F)n2)c(CNC(=O)c2cnn(Cc3ccc4c(c3)CN(C)CC4)c2)c1F [Example 31, N-({2-fluoro-3-methoxy-6-[3-(trifluoromethyl)-1,2,4-triazol-1-yl]phenyl}methyl)-1-[(2-methyl-3,4-dihydro-1H-isoquinolin-7-yl)methyl]pyrazole-4-carboxamide]
> 40 µM | < 0.01 µM | 28.1 µM | COCc1nn(Cc2ccc3c(c2)CN(C2CC2)CC3)cc1C(=O)NCc1c(-n2cc(C)nn2)ccc(OC)c1F [Example 14, 1-[(2-cyclopropyl-3,4-dihydro-1H-isoquinolin-7-yl)methyl]-N-{[2-fluoro-3-methoxy-6-(4-methyl-1,2,3-triazol-1-yl)phenyl]methyl}-3-(methoxymethyl)pyrazole-4-carboxamide]
> 40 µM | 0.1 to 1 µM | > 40 µM | COCc1nn(Cc2ccc3c(c2)CN(C)CC3)cc1C(=O)NCc1c(-n2cnc(C(F)F)n2)ccc(Cl)c1F [Example 155, N-({3-chloro-6-[3-(difluoromethyl)-1,2,4-triazol-1-yl]-2-fluorophenyl}methyl)-3-(methoxymethyl)-1-[(2-methyl-3,4-dihydro-1H-isoquinolin-7-yl)methyl]pyrazole-4-carboxamide]
> 40 µM | 0.01 to 0.03 µM | > 40 µM | COCc1nn(Cc2cc3n(n2)CCN(C)C3)cc1C(=O)NCc1c(-n2cc(C)nn2)ccc(OC)c1F [Example 70, N-{[2-fluoro-3-methoxy-6-(4-methyl-1,2,3-triazol-1-yl)phenyl]methyl}-3-(methoxymethyl)-1-({5-methyl-4H,6H,7H-pyrazolo[1,5-a]pyrazin-2-yl}methyl)pyrazole-4-carboxamide]
